# Experimental data published in patent publication US9126999B2, “Tetrahydropyrazolopyrimidine compounds” (EISAI R&D MANAGEMENT CO., LTD., priority 2012, dated 2015).
# Columns and labels:
# [1] = target: Human TLR4 (Homo sapiens, UniProt O00206); experiment: HEK-293 NF-kappaB luciferase reporter assay, LPS stimulus; format: cell-based; set-up: engineered to stably and individually express human TLR4, TLR7 or TLR9 full-length ORF cDNAs; expressed in transfected cells; host or cells: HEK-293 (ATCC) with ELAM-1 NF-kappaB luciferase reporter; settings: ligand LPS, analyte NFkB-luciferase
# Sequence of Human TLR4 (O00206 24-839): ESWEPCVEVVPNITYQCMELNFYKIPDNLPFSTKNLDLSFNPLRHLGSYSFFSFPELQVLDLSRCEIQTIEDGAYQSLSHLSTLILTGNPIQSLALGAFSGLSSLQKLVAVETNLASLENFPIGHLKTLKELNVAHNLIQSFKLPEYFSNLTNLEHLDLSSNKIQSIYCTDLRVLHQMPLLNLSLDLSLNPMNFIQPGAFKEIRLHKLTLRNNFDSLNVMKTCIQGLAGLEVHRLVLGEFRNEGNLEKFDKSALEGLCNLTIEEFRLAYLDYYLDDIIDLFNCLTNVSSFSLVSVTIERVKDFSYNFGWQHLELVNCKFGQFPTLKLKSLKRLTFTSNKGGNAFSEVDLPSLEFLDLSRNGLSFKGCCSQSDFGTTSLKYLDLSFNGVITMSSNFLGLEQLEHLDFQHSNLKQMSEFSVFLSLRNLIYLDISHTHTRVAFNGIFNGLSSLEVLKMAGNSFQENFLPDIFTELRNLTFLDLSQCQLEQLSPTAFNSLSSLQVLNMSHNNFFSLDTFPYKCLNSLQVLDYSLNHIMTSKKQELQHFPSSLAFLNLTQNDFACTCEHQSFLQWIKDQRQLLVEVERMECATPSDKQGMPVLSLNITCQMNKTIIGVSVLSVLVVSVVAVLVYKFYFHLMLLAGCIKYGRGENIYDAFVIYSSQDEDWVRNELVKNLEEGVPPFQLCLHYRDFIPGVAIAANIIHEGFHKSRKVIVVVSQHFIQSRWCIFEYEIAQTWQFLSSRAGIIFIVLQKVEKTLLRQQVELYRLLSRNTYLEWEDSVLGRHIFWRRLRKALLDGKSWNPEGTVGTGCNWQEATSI
# Sequence of Human TLR4 (Q9Y6Y9 19-160 partner): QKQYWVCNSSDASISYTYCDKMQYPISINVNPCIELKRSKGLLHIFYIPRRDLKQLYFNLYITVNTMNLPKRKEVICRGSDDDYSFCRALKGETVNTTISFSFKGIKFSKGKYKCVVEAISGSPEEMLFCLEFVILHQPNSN
# Excerpt: (§1) In vitro pharmacology: HEK-293 cells (ATCC) were engineered to stably express a NF-kappaB transcription factor inducible E-selectin (ELAM-1) luciferase reporter derived from the plasmid pGL3 (Promega) containing base pairs −2241 bp to −254 bp from the promoter of the human E-selectin gene (Accession No. NM_000450). These cells were then subsequently engineered to stably and individually express human TLR4, TLR7 or TLR9 full-length ORF cDNAs. Human TLR4 cDNA (Accession No. NM_138554) was cloned into pcDNA 3.0 expression vector (Invitrogen). TLR4 transfected cells were also engineered to express human MD-2 co-receptor [MD-2 cDNA (Accession No. NM_015364) was cloned into the pEF-BOS vector] and were supplemented with 10 nM soluble CD14 (R&D Systems) in the media to optimize LPS responsiveness. Human TLR9 cDNA (Accession No. NM_017442) was cloned into the pBluescript II KS vector (Agilent). Human TLR7 cDNA (Accession No. NM_016562) was obtained from OriGene. HEK-293 cells stably expressing human TLR8 (Accession No. NM_138636) or mouse TLR7 (Accession No. NM_133211) were purchased from InvivoGen and were then stably transfected with pNiFty2(NF-kappaB)-luciferase reporter plasmid (InvivoGen). […]
# [2] = system: T1, Human TLR7/8; experiment: Human PBMC cell-based assay, RNA-Ig (SL4-Ig) stimulus, cytokine ELISA; settings: Hu PBMC; ligand RNA-Ig; analyte IP-10
# T1 construct: IC50; other: Hu PBMC; ligand RNA-Ig; analyte IP-10
# Procedure, shortened: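 Ficoll-isolated human PBMC treated in triplicate with antagonist (final 0.1% DMSO), then stimulated with RNA-Ig (SL4-Ig) complex preincubated 15-30 min. Incubation 20 h at 37° C., 5% CO2; supernatant cytokines quantified by ELISA.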
# [3] = target: T2, Human TLR9 (Homo sapiens, UniProt Q9NR96); experiment: HEK-293 NF-kappaB luciferase reporter assay, CpG-ODN stimulus; format: cell-based; set-up: engineered to stably and individually express human TLR4, TLR7 or TLR9 full-length ORF cDNAs; expressed in transfected cells; host or cells: HEK-293 (ATCC) with ELAM-1 NF-kappaB luciferase reporter; settings: ligand CpG-ODN, analyte NFkB-luciferase
# T2 sequence (Q9NR96 26-1032): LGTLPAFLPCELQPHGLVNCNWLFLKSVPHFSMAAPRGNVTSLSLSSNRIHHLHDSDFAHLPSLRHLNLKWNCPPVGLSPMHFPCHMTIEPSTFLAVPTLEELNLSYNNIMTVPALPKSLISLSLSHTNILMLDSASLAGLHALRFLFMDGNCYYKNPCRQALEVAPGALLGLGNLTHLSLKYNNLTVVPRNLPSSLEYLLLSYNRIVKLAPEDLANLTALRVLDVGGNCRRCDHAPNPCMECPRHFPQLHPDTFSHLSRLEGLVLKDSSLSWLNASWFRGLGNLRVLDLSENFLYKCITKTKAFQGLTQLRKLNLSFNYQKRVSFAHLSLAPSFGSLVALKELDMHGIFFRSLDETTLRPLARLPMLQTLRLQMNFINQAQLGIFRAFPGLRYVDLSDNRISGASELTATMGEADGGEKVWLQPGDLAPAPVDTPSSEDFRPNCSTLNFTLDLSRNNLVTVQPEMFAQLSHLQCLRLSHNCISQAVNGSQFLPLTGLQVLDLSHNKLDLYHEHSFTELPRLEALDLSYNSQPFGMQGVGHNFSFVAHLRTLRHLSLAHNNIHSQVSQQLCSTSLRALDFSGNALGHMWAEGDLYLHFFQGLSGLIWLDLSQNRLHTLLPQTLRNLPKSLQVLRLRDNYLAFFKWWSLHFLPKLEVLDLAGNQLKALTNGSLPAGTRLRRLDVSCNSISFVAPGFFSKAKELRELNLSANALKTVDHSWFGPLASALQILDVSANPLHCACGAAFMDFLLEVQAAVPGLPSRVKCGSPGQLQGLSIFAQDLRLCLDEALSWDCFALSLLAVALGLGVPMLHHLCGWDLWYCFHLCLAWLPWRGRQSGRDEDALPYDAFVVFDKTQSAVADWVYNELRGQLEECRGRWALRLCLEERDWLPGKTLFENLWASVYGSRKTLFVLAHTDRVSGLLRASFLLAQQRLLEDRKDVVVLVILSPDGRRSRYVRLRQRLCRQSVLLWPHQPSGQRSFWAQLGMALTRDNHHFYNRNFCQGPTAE
# Excerpt: as §1
compound,measurement,setting,value
"COc1ccc([C@@H]2C[C@H](C(F)(F)F)n3nc(-c4ccc(C(=O)N5CCNCC5)cc4)cc3N2)cc1OC [ER-892887, (4-((5S,7R)-5-(3,4-dimethoxyphenyl)-7-(trifluoromethyl)-4,5,6,7-tetrahydropyrazolo[1,5-a]pyrimidin-2-yl)phenyl)(piperazin-1-yl)methanone]",IC50,[1],> 10 µM
same,IC50,[2],45 nM
same,IC50,[3],> 10 µM
